Several values for one entry are separate records, joined by “and”; a condition that tells them apart may be missing. Equal entries are not always repeated. Where two headings read alike, the source gives them in different places.
Columns and labels:
[1] = target: T1, Halo-EGFP-NanoLuc-FKBP^F36V (H-E-N-F) fusion protein (UniProt P0A3G2+P62942+Q9GV45, A155T/A167V/A172T/A224E/A31E/A60N/A81I/C128F/C176G/D78G/E160K/E257K/F37V/F95D/H272N/I117V/K175M/K195N/K70R/L47V/L54V/L88M/L99Q/M102K/N193R/N227D/P142E/P291S/Q151K/Q38R/Q45L/S2A/S58T/T264A/V71I/Y165I/Y273L/Y87F); format: cell-based; set-up: expressed in transfected cells; host or cells: immortalized mouse dermal fibroblasts (iMDFs), ubiquitin promoter, constitutive; details: 500 nM
Target sequence in this assay (P0A3G2 other isoform, or with tags, fused parts or gaps with the stated changes): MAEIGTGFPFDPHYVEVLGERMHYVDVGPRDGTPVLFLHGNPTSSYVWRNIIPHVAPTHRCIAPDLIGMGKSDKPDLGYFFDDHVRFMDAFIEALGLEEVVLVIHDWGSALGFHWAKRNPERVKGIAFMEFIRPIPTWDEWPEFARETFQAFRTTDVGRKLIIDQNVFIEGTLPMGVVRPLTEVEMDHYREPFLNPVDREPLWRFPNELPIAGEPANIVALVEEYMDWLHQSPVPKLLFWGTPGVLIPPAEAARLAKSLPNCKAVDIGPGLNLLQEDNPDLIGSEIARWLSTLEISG
Target sequence in this assay (Q9GV45 other isoform, or with tags, fused parts or gaps with the stated changes): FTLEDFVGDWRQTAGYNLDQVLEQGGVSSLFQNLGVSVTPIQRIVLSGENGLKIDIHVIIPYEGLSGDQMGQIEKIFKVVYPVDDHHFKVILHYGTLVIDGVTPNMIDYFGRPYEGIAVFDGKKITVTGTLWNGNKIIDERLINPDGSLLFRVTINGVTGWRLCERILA
Target sequence in this assay (P62942 whole entry F37V, the tested form may be a part): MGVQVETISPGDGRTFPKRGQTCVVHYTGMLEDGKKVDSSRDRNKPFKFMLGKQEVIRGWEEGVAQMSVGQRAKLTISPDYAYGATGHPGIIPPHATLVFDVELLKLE

[2] = system: MLKL^−/−CASP8^−/− HT29 cells expressing MLKL-NLuc and caspase-8-FKBP^F36V; details: TNF+SM
[3] = system: MLKL^−/− HT29 cells expressing untagged MLKL; format: cell-based; details: MLKL-/- + MLKL, TNF+911+zVAD, replicate columns
Procedure: Cell death was assessed by flow cytometric analysis of PI exclusion. […] Cell death was assessed by flow cytometric analysis of PI exclusion. […] Cell death was assessed by flow cytometric analysis of PI exclusion. e N = 4, f N = 3 independent experiments (symbols), EB represent mean ± SD. g Western from MLKL^−/−CASP8^−/− HT29 cells stably expressing the doxycycline-inducible C-terminal fusion protein, MLKL-NanoLuc (MLKL-NLuc) and constitutively expressing the C-terminal fusion protein caspase-8-FKBP^F36V. […] Cell death was assessed using an IncuCyte and Cytotox-Red uptake. N = 3 independent experiments, one representative experiment shown, EB represent mean ± SD.

[4] = target: T1, Halo-EGFP-NanoLuc-FKBP^F36V (H-E-N-F) fusion protein; format: cell-based; details: +dox; for Blank corrected (470-80) luminescence: single well replicates; for Blank corrected Raw Data (470-80): PROTAC 500nM, replicate wells
Target sequence in this assay (Q9GV45 other isoform, or with tags, fused parts or gaps with the stated changes): as the sequence (Q9GV45 other isoform, or with tags, fused parts or gaps with the stated changes) above
Target sequence in this assay (P0A3G2 other isoform, or with tags, fused parts or gaps with the stated changes): as the sequence (P0A3G2 other isoform, or with tags, fused parts or gaps with the stated changes) above
Target sequence in this assay (P62942 whole entry F37V, the tested form may be a part): as the sequence (P62942 whole entry F37V, the tested form may be a part) above

wild-type HT29 cells = test: Necroptosis assay (PI exclusion, flow cytometry), wild-type HT29 cells, TNF+SM+IDN; format: cell-based, human; details: sheet S5G
Procedure: To simulate necroptosis, cells were seeded into 96-well plates ±40 ng/mL doxycycline, to induce construct expression, and treated with 100 ng/mL FLAG-TNF (recombinant human, in-house), 500 nM compound A Smac mimetic (kindly gifted by TetraLogics Pharmaceuticals) and 5 μM IDN-6556 (Cayman) or 10 uM Z-VAD-fmk (Selleckchem) overnight (16–24 h). Degrader compounds or a DMSO vehicle control were added for 5 h, as stated in the Fig. legends. Cells were detached using Trypsin-EDTA (Merck) and resuspended in cell supernatants containing 10 μg/mL propidium iodide (PI). PI exclusion analysis was performed using an LSR II flow cytometer (Becton Dickinson, NJ) with 10,000 single-cell events per sample. Flow cytometry data were analysed using WEASEL version 2.7 software (Frank Battye).
Supplementary Figure 5. […]
NC4. Data are representative of N = 3 independent experiments. f-h. HT29 cells were stimulated with DMSO (control) or 500 nM of degrader for 5 hours before the addition of TNF (100 ng/mL) + Smac mimetic (compound A; 500 nM-1 µM) + caspase inhibitor; Emricasan (IDN) (5 µM), for 24 hours. Cell death was assessed by flow cytometric analysis of PI exclusion. N = 3 replicates (symbols) is shown, EB; mean ± SD. Data are representative of N = 3 independent experiments. i. Representative flow cytometry gating strategy. Source data are provided as a Source Data file.

`CC[C@H](C(=O)N1CCCC[C@H]1C(=O)O[C@H](CCc1ccc(OC)c(OC)c1)c1ccccc1OCC(=O)NCCCCCCC(=O)N[C@H](C(=O)N1C[C@H](O)C[C@H]1C(=O)N[C@@H](C)c1ccc(-c2scnc2C)cc1)C(C)(C)C)c1cc(OC)c(OC)c(OC)c1` [FV1] was tested, and the “time up to which degradation was seen, degrader left in the medium” value ([1]; 5, 24 or 48 h) was “up to 48 h”, the “time up to which degradation was maintained, degrader removed at 5 h” value ([1]; 24 or 48 h after removal) was “up to 48 h” and the “Cytotox-Red uptake (cell death), IncuCyte” value (shortened to “Cytotox-Red uptake”) ([2]; elapsed 0 h) was 162.812. The “Cytotox-Red uptake” value ([2]; elapsed 0.5 h) was 163.75, the “Cytotox-Red uptake” value ([2]; elapsed 1 h) was 172.188 and the “Cytotox-Red uptake” value ([2]; elapsed 2 h) was 261.562. The “Cytotox-Red uptake” value ([2]; elapsed 3 h) was 541.625, the “Cytotox-Red uptake” value ([2]; elapsed 4 h) was 907.75 and the “Cytotox-Red uptake” value ([2]; elapsed 5 h) was 1277. For the same molecule, the “Cytotox-Red uptake” value ([2]; elapsed 6 h) was 1576.88, the “Cytotox-Red uptake” value ([2]; elapsed 6.5 h) was 1701.5 and the “Cytotox-Red uptake” value ([2]; elapsed 7 h) was 1872.81. For the same molecule, the “Cytotox-Red uptake” value ([2]; elapsed 7.5 h) was 1974.44, the “Cytotox-Red uptake” value ([2]; elapsed 8 h) was 2103.31 and the “Cytotox-Red uptake” value ([2]; elapsed 9 h) was 2328. The “Cytotox-Red uptake” value ([2]; elapsed 9.5 h) was 2410.25, the “Cytotox-Red uptake” value ([2]; elapsed 10 h) was 2505.44 and the “Cytotox-Red uptake” value ([2]; elapsed 10.5 h) was 2578.38. For the same molecule, the “Cytotox-Red uptake” value ([2]; elapsed 11 h) was 2647, the “Cytotox-Red uptake” value ([2]; elapsed 12 h) was 2777.19 and the “Cytotox-Red uptake” value ([2]; elapsed 13 h) was 2864.25. For the same molecule, the “Cytotox-Red uptake” value ([2]; elapsed 13.5 h) was 3026.81, the “Cytotox-Red uptake” value ([2]; elapsed 14 h) was 2985.5 and the “Cytotox-Red uptake” value ([2]; elapsed 14.5 h) was 2992.62. For the same molecule, the “Cytotox-Red uptake” value ([2]; elapsed 15 h) was 3009.12, the “Cytotox-Red uptake” value ([2]; elapsed 16 h) was 3103.38 and the “Cytotox-Red uptake” value ([2]; elapsed 17 h) was 3055.31. The “Cytotox-Red uptake” value ([2]; elapsed 18 h) was 3042.38, the “Cytotox-Red uptake” value ([2]; elapsed 19 h) was 3048.56 and the “Cytotox-Red uptake” value ([2]; elapsed 19.5 h) was 3013.69. The “TNF+911+zVAD (PI exclusion)” value ([3]; degrader 3.9nM) was 5.8 and 7 and 7.6, the “TNF+911+zVAD (PI exclusion)” value ([3]; degrader 7.8nM) was 6.7 and 5.9 and 5.7 and the “TNF+911+zVAD (PI exclusion)” value ([3]; degrader 31.25nM) was 5.8 and 6 and 5.7. The “TNF+911+zVAD (PI exclusion)” value ([3]; degrader 62.5nM) was 6.1 and 6.6 and 5.2, the “TNF+911+zVAD (PI exclusion)” value ([3]; degrader 250nM) was 6.3 and 5.6 and 5.3 and the “TNF+911+zVAD (PI exclusion)” value ([3]; degrader 500nM) was 5.9 and 5.1 and 4.5. The “TNF+911+zVAD (PI exclusion)” value ([3]; degrader 1000nM) was 5.8 and 4.9 and 5, the “Blank corrected (470-80) luminescence” value ([4]; 3.9nM PROTAC) was 31936 and 32480 and 32608 and 31981 and the “Blank corrected (470-80) luminescence” value ([4]; 7.8nM PROTAC) was 24693 and 21134 and 25624 and 20591. The “Blank corrected (470-80) luminescence” value ([4]; 31.25nM PROTAC) was 9757 and 8948 and 8891 and 8313, the “Blank corrected (470-80) luminescence” value ([4]; 62.5nM PROTAC) was 5245 and 5647 and 5355 and 5575 and the “Blank corrected (470-80) luminescence” value ([4]; 250nM PROTAC) was 2257 and 3039 and 2286 and 2469. The “Blank corrected (470-80) luminescence” value ([4]; 500nM PROTAC, 5h) was 3865 and 3357 and 3449 and 3849, the “Blank corrected (470-80) luminescence” value ([4]; 500nM PROTAC, 8h) was 4070 and 3846 and 4184 and 2817 and the “Blank corrected (470-80) luminescence” value ([4]; 500nM PROTAC, 24h) was 5571 and 3433 and 4739. For the same molecule, the “Blank corrected (470-80) luminescence” value ([4]; 500nM PROTAC) was 1404 and 1634 and 1510 and 1568, the “Blank corrected (470-80) luminescence” value ([4]; 1uM PROTAC) was 1692 and 1683 and 1666 and 1785 and the “Blank corrected Raw Data (470-80)” value ([4]; DMSO (control) co-treatment) was 1481 and 2747 and 2028. For the same molecule, the “Blank corrected Raw Data (470-80)” value ([4]; co-treatment with MG132 (10uM)) was 32421 and 46504 and 47437 and 52425, the “viable cells (PI exclusion)” value (wild-type HT29 cells; TNF+SM+IDN) was 9.5 and 6.6 and 6.1 and the “viable cells (PI exclusion)” value (wild-type HT29 cells; Unt (no death stimulus)) was 76.3 and 74.4 and 69.6.

— publication PMC9019100, “Development of NanoLuc-targeting protein degraders and a universal reporter system to benchmark tag-targeted degradation platforms” (Nature Communications, 2022)
